# Experiments:
# [1] = target: T1, ACE (Oryctolagus cuniculus, UniProt P12822); assay: Incubation of AM-A with metalloenzymes in Zn2+-depleted buffer; type: biochemical, rabbit; settings: extended incubation, AM-A 0.5 mM
# T1 construct: as well as ACE from rabbit lung; from tissue; host or cells: rabbit lung
# T1 sequence (P12822 34-1310): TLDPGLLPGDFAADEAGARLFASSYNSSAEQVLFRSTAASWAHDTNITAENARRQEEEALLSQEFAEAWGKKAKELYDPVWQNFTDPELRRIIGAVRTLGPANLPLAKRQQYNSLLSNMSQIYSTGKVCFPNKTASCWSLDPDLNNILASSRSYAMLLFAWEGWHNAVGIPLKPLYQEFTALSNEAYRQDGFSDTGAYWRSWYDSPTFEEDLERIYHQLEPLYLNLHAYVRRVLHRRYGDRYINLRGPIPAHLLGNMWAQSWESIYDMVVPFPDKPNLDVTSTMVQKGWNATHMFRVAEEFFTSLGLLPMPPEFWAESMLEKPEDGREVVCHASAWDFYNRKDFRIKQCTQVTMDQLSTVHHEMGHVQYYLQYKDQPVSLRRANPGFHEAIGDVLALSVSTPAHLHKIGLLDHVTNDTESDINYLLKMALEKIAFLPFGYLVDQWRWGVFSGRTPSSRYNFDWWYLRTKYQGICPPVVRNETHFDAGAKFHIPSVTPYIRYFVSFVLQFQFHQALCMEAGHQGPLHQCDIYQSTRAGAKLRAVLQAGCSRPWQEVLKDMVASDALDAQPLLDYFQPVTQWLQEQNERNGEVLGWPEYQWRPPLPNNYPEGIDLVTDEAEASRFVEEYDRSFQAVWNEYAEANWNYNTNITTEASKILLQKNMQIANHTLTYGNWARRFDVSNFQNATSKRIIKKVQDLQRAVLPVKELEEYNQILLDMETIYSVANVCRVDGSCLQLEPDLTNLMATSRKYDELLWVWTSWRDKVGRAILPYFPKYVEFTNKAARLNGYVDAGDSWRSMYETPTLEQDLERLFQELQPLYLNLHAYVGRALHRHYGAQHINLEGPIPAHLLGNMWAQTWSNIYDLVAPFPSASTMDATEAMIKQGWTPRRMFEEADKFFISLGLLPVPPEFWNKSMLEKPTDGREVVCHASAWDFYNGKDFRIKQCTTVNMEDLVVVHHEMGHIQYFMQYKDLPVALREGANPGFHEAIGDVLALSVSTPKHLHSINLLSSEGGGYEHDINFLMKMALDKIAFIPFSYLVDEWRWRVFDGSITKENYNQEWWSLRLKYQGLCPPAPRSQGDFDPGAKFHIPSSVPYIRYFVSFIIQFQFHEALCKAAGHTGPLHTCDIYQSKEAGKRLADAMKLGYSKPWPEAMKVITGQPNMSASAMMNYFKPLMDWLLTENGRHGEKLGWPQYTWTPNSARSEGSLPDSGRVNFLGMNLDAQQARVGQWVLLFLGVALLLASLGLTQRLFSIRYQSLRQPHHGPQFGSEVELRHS
# Description: (§1) Enzyme (500 nM) was incubated with AM-A (500 μM) for 10 minutes. 20 μL of the above was diluted with 180 μL nitrocefin or FAPGG substrate for the following final concentrations: Enzyme (50 nM), FAPGG (50 μM)/nitrocefin (20 μM), AM-A (50 μM). Buffer (50 mM HEPES pH 7.5, 300 mM NaCl) was stirred overnight with 2 g/100 mL Chelex-100 (Biorad; Richmond, Calif.). Assays were read in 96-well microplate format at 490 nm using a Spectramax reader (Molecular Devices) at 37° C.
# [2] = test system: E. coli BW25113ΔbamBΔtolCΔaraDAB::pLac(blaNDM-1); assay: Cell-based screen for NDM-1 inhibitors with sub-lethal meropenem; set-up: species or system Escherichia coli; settings: in combination with meropenem
# Description: A cell-based screen for inhibitors of the NDM-1 metallo-β-lactamase using a collection of natural product extracts derived from environmental microorganisms was performed. To increase the sensitivity of the screen to MBL inhibitor discovery a test strain of Escherichia coli BW25113 in which the bamB and tolC genes were independently deleted (E. coli BW25113ΔbamBΔtolC) was generated. BamB is involved in outer membrane porin assembly and disruption results in increased permeability to small molecules^19 and TolC is a part of the tripartite small molecule efflux systems such as AcrA-AcrB-TolC that serve to actively eliminate small molecules from the cell^20. Therefore, E. coli BW25113ΔbamBΔtolC increases the sensitivity of the screen to discovery of “hits”. This strain was further modified by integrating the blaNDM-1β-lactamase gene under control of the pLac promoter into the chromosome [E. coli BW25113ΔbamBΔtolCΔaraDAB::pLac(blaNDM-1)]. This strain was screened in the presence of a sub-lethal concentration of meropenem (of the minimum inhibitory concentration 0.125 μg/mL) in combination with ˜500 natural product extracts.
# ˜500 natural product extracts were screened against E. coli BW25113ΔbamBΔto1CΔaraDAB::pLac(blaNDM-1) in combination with 0.125 μg/mL meropenem. […] Z′ was determined to be 0.77, indicating an excellent screening window^22.
# [3] = test system: IMP-7; assay: Incubation of AM-A with metalloenzymes in Zn2+-depleted buffer; type: biochemical; settings: extended incubation, AM-A 0.5 mM
# Description: as §1, with “20” for “Enzyme (500 nM) was incubated with AM-A (500 μM) for 10 minutes. 20”
# [4] = in vivo; cited from earlier work
structure (smiles),measurement,setting,value
"N[C@H](CN[C@H](CN[C@@H](CC(=O)O)C(=O)O)C(=O)O)C(=O)O [AM-A, aspergillomarasmine A]",inhibition at 500 µM,[1],~50%
same,restoration of meropenem antibiotic activity,[2],restored meropenem activity
same,inhibition of activity in IMP-7,[3],~70%
same,effect on mean atrial blood pressure,[4],no effect
